Experimental data from patent publication US20240366514A1, “PHARMACEUTICAL COMPOSITIONS OF OZANIMOD” (ZYDUS LIFESCIENCES LIMITED, priority 2021, published 2024).

Test system: TNBS induced colitis model in rat
Experiment: Pharmacodynamic (PD) study in TNBS induced colitis model in rat
Type: in vivo, Wistar rat male
Method: However, these differences in PK parameters were not observed in Pharmacodynamic (PD) study (Experiment 02) conducted in TNBS induced colitis model in rat. […] In this study, the efficacy parameters measured were colon weight to length ratio, colonic […] score (which includes sum of Adhesion score, Stricture score, Ulcer, Wall thickness) and Lymphocyte count. Colon weight to length ratio and macroscopic colon disease score were determined at the end of the study, whereas Lymphocyte count in circulation relative to vehicle treated TNBS challenged diseased animals (Vehicle control) was assessed 24 h after the last dose. […] The reasons for the similar efficacy response even at the differences in PK profile between both the formulations could be due to receptor saturation of S1P1 receptors overexpressed at the intestine at the dose of 1 mg/kg administered in both the treatment groups. […] The cardiac side effects such as Bradyarrhythmia and Atrioventricular Conduction Delays, which are associated with high Cmax from immediate-release formulation, get reduced or eliminated with the use of delayed-release formulation without affecting efficacy. Thus, the delayed-release formulation may also offer the skipping or reduce frequency of up-titration scheme.

## Nc1ccc(O)c(C(=O)O)c1 [Mesalamine]
24 h after the last dose, relative to vehicle treated TNBS challenged animals
  Lymphocyte count, % Inhibition (Mean ± SEM): 13.39 ± 21.66%
144 h, oral once a day for 6 days, IR 1 mg/kg, DR 0.89 mg/kg, Mesalamine 150 mg/kg, versus vehicle control, read-out: Colon Macroscopic Score, % Inhibition (Mean ± SEM)
  inhibition at 150 mg/kg: 56.5 ± 5.02%
circulating, 24 h after the last dose, IR 1 mg/kg, DR 0.89 mg/kg, Mesalamine 150 mg/kg oral for 6 days
  Lymphocyte count (10^3/μL), Observation (Mean ± SEM): 7.6 ± 1.9 10^3/μL
Oral once a day for 6 consecutive days, IR 1 mg/kg, DR 0.89 mg/kg, Mesalamine 150 mg/kg, end of study
  Colon Weight to Length ratio (mg/cm), Observation (Mean ± SEM): 120.44 ± 4.22 mg/cm
Oral once a day for 6 days, IR 1 mg/kg, DR 0.89 mg/kg, Mesalamine 150 mg/kg, end of study
  Colon Macroscopic Score [Sum of scores of Adhesion score, Stricture score, Ulcer, Wall thickness], Observation (Mean ± SEM): 2.5 ± 0.29
Oral once a day for 6 days, IR 1 mg/kg, DR 0.89 mg/kg, Mesalamine 150 mg/kg, versus vehicle control
  Colon Weight to Length ratio, % Inhibition (Mean ± SEM): 41.75 ± 2.04%
